Laboratory results taken from patent publication US20240376073A1 (Hoffmann-La Roche Inc., priority 2021, published 2024).
Counter-ions that a name gives are not always drawn. Like-named read-outs stand apart in the source and are kept apart here.

System: Acinetobacter baumannii ATCC17961
Experiment: Antimicrobial susceptibility testing: 90% growth inhibitory concentration (IC90) determination
Format: cell-based
Settings: Iso-Sensitest broth, growth by OD 600 nm over 16 h, 35±2° C.
Method in brief: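 Twofold serial dilutions (e.g. 50 to 0.097 μM final) in Iso-Sensitest broth, inoculated at ~5×10^(5) CFU/ml, incubated at 35±2° C. OD600 read every 20 min over 16 h; IC90 derived from growth inhibition during logarithmic growth.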

[1] = Acinetobacter baumannii ATCC17961, read-out: ATCC 17961 IC90
[2] = Acinetobacter baumannii, ATCC17961, 16 h, read-out: ATCC 17961 IC90, Acinetobacter baumannii ATCC17961

IC90 [1]	SMILES	IC90 [2]
120 nM	COc1ccc(-c2cnc(C(=O)Nc3ccc(C(=O)N4CCN(C(=O)C[N+]5(C)CCOCC5)CC4)c(Cl)c3)n2C)c(F)c1F [Example C27, N-[3-chloro-4-[4-[2-(4-methyl-morpholin-4-ium-4-yl)acetyl]-piperazine-1-carbonyl]phenyl]-5-(2,3-difluoro-4-methoxy-phenyl)-1-methyl-imid-azole-2-carbox-amide; formate]	
100 nM	Cn1c(-c2ccc(OC(F)F)c(F)c2F)cnc1C(=O)Nc1ccc(C(=O)N2CCN(C(=O)C3CC[N+](C)(CC4CNC4)CC3)CC2)c(F)c1 (stereo not shown) [Example C42, N-[4-[4-[1-(azet-idin-3-ylmethyl)-1-methyl-piper-idin-1-ium-4-carbonyl]piper-azine-1-carbon-yl]-3-fluoro-phenyl]-5-[4-(difluorometh-oxy)-2,3-difluoro-phenyl]-1-methyl-imidazole-2-car-boxamide; 2,2,2-trifluoroacetate; 2,2,2-trifluoro-acetic acid]	
570 nM	COc1ccc(-c2cnc(C(=O)Nc3ccc(C(=O)N4CCN(C(=O)CCC[N+](CCCN)(CCCN)CC(=O)O)CC4)c(Cl)c3)n2C)c(F)c1F [Example C34, bis(3-aminopropyl)-(carboxymethyl)-[4-[4-[2-chloro-4-[[5-(2,3-difluoro-4-methoxy-phenyl)-1-methyl-imidazole-2-carbonyl]amino]benzoyl]piperazin-1-yl]-4-oxo-butyl]ammonium; formate]	

Further lines, the molecule ahead of its results:

SMILES	IC90 [1]	IC90 [2]
COc1ccc(-c2cnc(C(=O)Nc3ccc(C(=O)NC4CN(C(=O)C[N+](C)(C)CC(N)=O)C4)c(Cl)c3)n2C)c(F)c1F [Example B6, (2-amino-2-oxo-ethyl)-[2-[3-[[2-chloro-4-[[5-(2,3-difluoro-4-methoxy-phenyl)-1-methyl-imidazole-2-carbonyl]amino]benzoyl]aminoJazetidin-1-yl]-2-oxo-ethyl]-dimethyl-ammonium; formate]	290 nM	
Cn1c(-c2ccc(OC(F)F)cc2F)cnc1C(=O)Nc1ccc(C(=O)N2CCN(C(=O)C[N+](C)(C)C)CC2)c(Cl)c1 [Example B11, [2-[4-[2-chloro-4-[5-[4-(difluoromethoxy)-2-fluoro-phenyl]-1-methyl-imidazole-2-carbonyl]amino]benzoyl]piperazin-1-yl]-2-oxo-ethyl]-trimethyl-ammonium; formate]	150 nM	
Cn1c(-c2ccc(OCF)c(F)c2F)cnc1C(=O)Nc1ccc(C(=O)N2CCN(C(=O)[C@@H]3C[C@@H](O)C[N+]3(C)C)CC2)c(Cl)c1 [Example B45, N-[3-chloro-4-[4-[(2S,4R)-4-hydroxy-1,1-dimethyl-pyrrolidin-1-ium-2-carbonyl]piperazine-1-carbonyl]phenyl]-5-[2,3-difluoro-4-(fluoromethoxy)phenyl]-1-methyl-imidazole-2-carboxamide; formate]		93 nM
Cc1cc(NC(=O)c2ncc(-c3ccc(OCC#N)c(F)c3F)n2C)ccc1C(=O)N1CCN(C(=O)C2(O)CC[N+](C)(C)CC2)CC1 [Example B26, 4-(4-(4-(5-(4-(cyanomethoxy)-2,3-difluorophenyl)-1-methyl-1H-imidazole-2-carboxamido)-2-methylbenzoyl)piperazine-1-carbonyl)-4-hydroxy-1,1-dimethylpiperidin-1-ium formate]	540 nM	
COc1ccc(-c2cnc(C(=O)Nc3ccc(C(=O)NCc4cn(CCC#N)[n+](C)c4)c(Cl)c3)n2C)c(F)c1F [Example A22, N-[3-chloro-4-[1-(2-cyanoethyl)-2-methyl-pyrazol-2-ium-4-yl]methylcarbamoyl]phenyl]-5-(2,3-difluoro-4-methoxy-phenyl)-1-methyl-imidazole-2-carboxamide; formate]	390 nM	
COc1ccc(-c2cnc(C(=O)Nc3ccc(C(=O)N4CCN(C(=O)CCC[N+](C)(CCCN)CC(=O)O)CC4)c(Cl)c3)n2C)c(F)c1F (stereo not shown) [Example C35, 3-aminopropyl-(carboxymethyl)-[4-[4-[2-chloro-4-[[5-(2,3-difluoro-4-methoxy-phenyl)-1-methyl-imidazole-2-carbonyl]amino]beuzoyl]piperazin-1-yl]-4-oxo-butyl]-methyl-ammonium formate]		510 nM
Cn1c(-c2ccc(OC(F)F)c(F)c2F)cnc1C(=O)Nc1ccc(C(=O)N2CCN(C(=O)C3CCN(C(=O)C[N+](C)(C)C)CC3)CC2)c(Cl)c1 [Example B14, [2-[4-[4-[2-chloro-4-[[5-[4-(difluoromethoxy)-2,3-difluoro-phenyl]-1-methyl-imidazole-2-carbonyl]amino]benzoyl]piperazine-1-carbonyl]-1-piperidyl]-2-oxo-ethyl]-trimethyl-ammonium; formate]	76 nM	
COc1ccc(-c2cnc(C(=O)Nc3ccc(C(=O)N4CCN(C(=O)CC5CC[N+](C)(C)C5)CC4)c(Cl)c3)n2C)c(F)c1F (stereo not shown) [Example B13, N-[3-chloro-4-[4-[2-(1,1-dimethylpyrrolidin-1-ium-3-yl)acetyl]piperazine-1-carbonyl]phenyl]-5-(2,3-difluoro-4-methoxy-phenyl)-1-methyl-imidazole-2-carboxamide; formate]	68 nM	
Cn1c(-c2ccc(OCC#N)c(F)c2F)cnc1C(=O)Nc1ccc(C(=O)N[C@H]2C[C@@H](NC(=O)C[N+](C)(C)C)C2)c(Cl)c1 [Example A16, [2-[[3-[2-chloro-4-[[5-[4-(cyanomethoxy)-2,3-difluoro-phenyl]-1-methyl-imidazole-2-carbonyl]amino]benzoyl]amino]cyclobutyl]amino]-2-oxo-ethyl]-trimethyl-ammonium formate]	88 nM	
COc1ccc(-c2cnc(C(=O)Nc3ccc(C(=O)NCc4cn(CCOCCO)[n+](C)c4)c(Cl)c3)n2C)c(F)c1F [Example A26, N-[3-chloro-4-[1-[2-(2-hydroxyethoxy)ethyl]-2-methyl-pyrazol-2-ium-4-yl]methylcarbamoyl]phenyl]-5-(2,3-difluoro-4-methoxy-phenyl)-1-methyl-imidazole-2-carboxamide; formate]	410 nM	
COc1ccc(-c2cnc(C(=O)Nc3ccc(C(=O)N4CCC(CC[N+](C)(C)C)CC4)c(Cl)c3)n2C)c(F)c1F [Example A1, 2-[1-[2-Chloro-4-[[5-(2,3-difluoro-4-methoxy-phenyl)-1-methyl-imidazole-2-carbonyl]amino]benzoyl]-4-piperidyl]ethyl-trimethyl-ammonium;formate]	79 nM	
COc1ccc(-c2cnc(C(=O)Nc3ccc(C(=O)N4CCN(C(=O)C[N+](C)(C)C)CC4)c(C)c3)n2C)c(F)c1F [Example B21, [2-[4-[4-[5-(2,3-difluoro-4-methoxy-phenyl)-1-methyl-imidazole-2-carbonyl]amino]-2-methyl-benzoyl]piperazin-1-yl]-2-oxo-ethyl]-trimethyl-ammonium; formate]	280 nM	
COc1ccc(-c2cnc(C(=O)Nc3ccc(C(=O)N4CCN(C(=O)C[N+](C)(C)CC(N)=O)CC4)c(C)c3)n2C)c(F)c1F [Example B1, (2-Amino-2-oxo-ethyl)-[2-[4-[4-[[5-(2,3-difluoro-4-methoxy-phenyl)-1-methyl-imidazole-2-carbonyl]amino]-2-methyl-benzoyl]piperazin-1-yl]-2-oxo-ethyl]-dimethyl-ammonium;formate]	280 nM	
